Values after ≈ are worked out from the molar mass of the structure shown. Read-outs that look alike come from different tables or passages of the source.
How the values were obtained:
Bac.Subt.ATCC 6633 = assay: agar serial dilution test; type: cell-based, Bacillus subtilis; conditions: Bacillus subtilis, ATCC6633, 24 h, agar serial dilution, 24 hours, 37° C.; read-out: minimal inhibitory concentration (MIC)
Staph.aureus A 321 = assay: agar serial dilution test; type: cell-based, Staphylococcus aureus; conditions: Staphylococcus aureus, A321, 24 h, agar serial dilution, 24 hours, 37° C.; read-out: minimal inhibitory concentration (MIC)
Staph.aureus A 2000 [1] = assay: agar serial dilution test; type: cell-based, Staphylococcus aureus; conditions: Staphylococcus aureus, A2000, 24 h, agar serial dilution, 24 hours, 37° C.; read-out: minimal inhibitory concentration (MIC)
Staph.aureus A 2001 [2] = assay: agar serial dilution test; type: cell-based, Staphylococcus aureus; conditions: Staphylococcus aureus, A2001, 24 h, agar serial dilution, 24 hours, 37° C.; read-out: minimal inhibitory concentration (MIC)
Strep.haem. A 266 = assay: agar serial dilution test; type: cell-based, Streptococcus haemolyticus; conditions: Streptococcus; agar serial dilution, 24 hours, 37° C.; read-out: minimal inhibitory concentration (MIC)
Strep. faec. L 80 = assay: agar serial dilution test; type: cell-based, Streptococcus faecalis; conditions: Enterococcus faecalis; agar serial dilution, 24 hours, 37° C.; read-out: minimal inhibitory concentration (MIC)
Bruc.melit. A 488 = assay: microbe, parasite or virus in culture; type: cell-based; conditions: Brucella melitensis, 24 h, read-out: minimal inhibitory concentration (MIC)
Past.multo. A 723 = assay: agar serial dilution test; type: cell-based, Pasteurella multocida; conditions: Pasteurella multocida; agar serial dilution, 24 hours, 37° C.; read-out: minimal inhibitory concentration (MIC)
Kleb.pneum. A 809 = assay: agar serial dilution test; type: cell-based, Klebsiella pneumoniae; conditions: Klebsiella pneumoniae; agar serial dilution, 24 hours, 37° C.; read-out: minimal inhibitory concentration (MIC)
Salm.dubl. P 43 = assay: agar serial dilution test; type: cell-based, Salmonella dublin; conditions: Salmonella enterica, read-out: minimal inhibitory concentration (MIC)
Salm.typh. R 127 = assay: agar serial dilution test; type: cell-based; conditions: 24 h, 37° C., read-out: minimal inhibitory concentration (MIC)
Esch.coli U 20 = assay: agar serial dilution test; type: cell-based, Escherichia coli; conditions: Escherichia coli, U20; agar serial dilution, 24 hours, 37° C.; read-out: minimal inhibitory concentration (MIC)
Shig.equir. T 3 = assay: agar serial dilution test; type: cell-based; conditions: 24 h, 37° C., read-out: minimal inhibitory concentration (MIC)
Pseud.aerug. H 10 = assay: agar serial dilution test; type: cell-based; conditions: agar serial dilution, 24 hours, 37° C.; read-out: minimal inhibitory concentration (MIC)
Pseud.aerug. 2396 = assay: agar serial dilution test; type: cell-based; conditions: agar serial dilution, 24 hours, 37° C.; read-out: minimal inhibitory concentration (MIC)
[3] = test system: Pseud.aerug. Wyeth A 1058; assay: agar serial dilution test; type: cell-based; conditions: agar serial dilution, 24 hours, 37° C.; read-out: minimal inhibitory concentration (MIC)
Prot.rettg. A 821 = assay: agar serial dilution test; type: cell-based, Proteus rettgeri; conditions: Providencia rettgeri, 24 h, read-out: minimal inhibitory concentration (MIC)
Prot.mirab. H 3 = assay: agar serial dilution test; type: cell-based, Proteus mirabilis; conditions: Proteus mirabilis
Prot.mirab. L 93 = assay: agar serial dilution test; type: cell-based, Proteus mirabilis; conditions: Proteus mirabilis
Prot.mirab. A 1200 = assay: agar serial dilution test; type: cell-based, Proteus mirabilis; conditions: Proteus mirabilis, 24 h, agar serial dilution, 24 hours, 37° C.; read-out: minimal inhibitory concentration (MIC)
Prot.morg. 2241 = assay: agar serial dilution test; type: cell-based; conditions: 24 h, agar serial dilution, 24 hours, 37° C.; read-out: minimal inhibitory concentration (MIC)
Staph.aureus A 355 [4] = assay: micro serial dilution test; type: cell-based, Staphylococcus aureus; conditions: Staphylococcus aureus, A355; micro serial dilution (in brackets), about 18 hours, 30° C. or 37° C.; penicillinase-producing strain; read-out: minimal inhibitory concentration (MIC)
Staph.aureus A 2000 [5] = assay: micro serial dilution test; type: cell-based, Staphylococcus aureus; conditions: Staphylococcus aureus, A2000, 18 h, micro serial dilution (in brackets), about 18 hours, 30° C. or 37° C.; read-out: minimal inhibitory concentration (MIC)
Staph.aureus A 2001 [6] = assay: micro serial dilution test; type: cell-based, Staphylococcus aureus; conditions: Staphylococcus aureus, A2001, 18 h, micro serial dilution (in brackets), about 18 hours, 30° C. or 37° C.; read-out: minimal inhibitory concentration (MIC)
Haem.infl. A 1030 = assay: micro serial dilution test; type: cell-based; conditions: 18 h, micro serial dilution (in brackets), about 18 hours, 30° C. or 37° C.; read-out: minimal inhibitory concentration (MIC)
Staph.aureus A 355 [7] = assay: agar serial dilution test; conditions: Staphylococcus aureus, A355, 24 h, read-out: minimal inhibitory concentration (MIC), agar serial dilution, 24 hours, 37° C.; penicillinase-producing strain
Dipl.pneum. L 54 = assay: agar serial dilution test; type: cell-based, Diplococcus pneumoniae; conditions: Streptococcus pneumoniae; agar serial dilution, 24 hours, 37° C.; read-out: minimal inhibitory concentration (MIC)
[8] = agar serial dilution, 24 hours, 37° C.
[9] = 24 h, read-out: minimal inhibitory concentration (MIC), agar serial dilution, 24 hours, 37° C.
[10] = agar serial dilution, 24 hours, 37° C., read-out: minimal inhibitory concentration (MIC)

SMILES | MIC (Bac.Subt.ATCC 6633) [µg/mL] | MIC (Staph.aureus A 321) [µg/mL] | MIC (Staph.aureus A 2000 [1]) [µg/mL] | MIC (Staph.aureus A 2001 [2]) [µg/mL] | MIC (Strep.haem. A 266) [µg/mL] | MIC (Strep. faec. L 80) [µg/mL] | MIC (Bruc.melit. A 488) [µg/mL] | MIC (Past.multo. A 723) [µg/mL] | MIC (Kleb.pneum. A 809) [µg/mL] | MIC (Salm.typh. R 127) [µg/mL] | MIC (Esch.coli U 20) [µg/mL] | MIC (Shig.equir. T 3) [µg/mL] | MIC (Pseud.aerug. H 10) [µg/mL] | MIC (Pseud.aerug. 2396) [µg/mL] | MIC [3] [µg/mL] | MIC (Prot.mirab. A 1200) [µg/mL] | MIC (Prot.morg. 2241) [µg/mL] | MIC (Staph.aureus A 355 [4]) [µg/mL] | MIC (Staph.aureus A 2000 [5]) [µg/mL] | MIC (Staph.aureus A 2001 [6]) [µg/mL] | other results
CC(=O)OCC1=C(C(=O)O)N2C(=O)[C@@H](NC(=O)C(C)c3nc(C)no3)[C@H]2SC1 (mixture of isomers) [Example 11I, dl-7-[α-methyl-(3-methyl-1,2,4-oxadiazol-5-yl)-acetamido]-cephalosporanic acid] | 0.12 | 1 | 1.5 | 1.5 | 0.25 | 75 | 6 | 1.5 | 6 | 25 | 50 | 12.5 | > 100 | > 100 | > 100 | 25 | > 100 | 1.2 | 1.2 | 1.2 | MIC (Salm.dubl. P 43; 24 h): 12.5 µg/mL; MIC (Prot.rettg. A 821; [8]): 6 µg/mL; MIC (Prot.mirab. H 3; [9]): 12.5 µg/mL; MIC (Prot.mirab. L 93; [9]): 12.5 µg/mL; MIC (Haem.infl. A 1030): > 125 µg/mL; MIC (Staph.aureus A 355 [7]): 3 µg/mL
CCc1noc(C(C)C(=O)N[C@@H]2C(=O)N3C(C(=O)O)=C(COC(C)=O)CS[C@H]23)n1 (mixture of isomers) [Example 11K, dl-7-[α-methyl-(3-ethyl-1,2,4-oxadiazol-5-yl)-acetamido]-cephalosporanic acid] | 0.25 | 1.5 | 1.5 | 1 | 0.06 | 100 | 12.5 | 1.5 | 6 | > 100 | > 100 | 25 | > 100 | > 100 | > 100 | > 100 | > 100 | 0.9 | 1.2 | 0.9 | MIC (Dipl.pneum. L 54): 1 µg/mL; MIC (Salm.dubl. P 43; [8]): 100 µg/mL; MIC (Prot.rettg. A 821): 12.5 µg/mL; MIC (Prot.mirab. H 3; [10]): > 100 µg/mL; MIC (Prot.mirab. L 93; [9]): 12.5 µg/mL; MIC (Haem.infl. A 1030): 125 µg/mL; MIC (Staph.aureus A 355 [7]): 1.5 µg/mL
COCc1noc(CC(=O)N[C@@H]2C(=O)N3[C@@H]2SC(C)(C)[C@@H]3C(=O)O)n1 [Compound A, 6-[(3-methoxymethyl-1,2,4-oxadiazol-5-yl)-acetamido]-penicillanic acid] | 0.06 (≈ 0.162 µM) | 0.5 (≈ 1.35 µM) | 6 (≈ 16.2 µM) | 1.5 (≈ 4.05 µM) | 0.03 (≈ 0.081 µM) | 6 (≈ 16.2 µM) | 0.5 (≈ 1.35 µM) | 1 (≈ 2.7 µM) | > 100 | 25 (≈ 67.5 µM) | 50 (≈ 135 µM) | 1.5 (≈ 4.05 µM) | > 100 | > 100 | > 100 | 100 (≈ 270 µM) | > 100 | 60 (≈ 162 µM) | 90 (≈ 243 µM) | 3.7 (≈ 9.99 µM) | MIC (Dipl.pneum. L 54): 0.25 µg/mL (≈ 0.675 µM); MIC (Salm.dubl. P 43; [8]): 12.5 µg/mL (≈ 33.7 µM); MIC (Prot.rettg. A 821; [8]): 6 µg/mL (≈ 16.2 µM); MIC (Prot.mirab. H 3; [10]): > 100 µg/mL; MIC (Prot.mirab. L 93; [10]): 12.5 µg/mL (≈ 33.7 µM); MIC (Haem.infl. A 1030): 4 µg/mL (≈ 10.8 µM); MIC (Staph.aureus A 355 [7]): 6 µg/mL (≈ 16.2 µM)
CC(=O)OCC1=C(C(=O)O)N2C(=O)[C@@H](NC(=O)C(c3ccccc3)c3nc(C)no3)[C@H]2SC1 (stereo partly drawn) [Compound B, 7-[α-phenyl-(3-methyl-1,2,4-oxadiazol-5-yl)-acetamido]-3-acetoxymethyl-3-cephem-4-carboxylic acid] | 0.25 (≈ 0.529 µM) | 0.5 (≈ 1.06 µM) | 1.5 (≈ 3.17 µM) | 1.5 (≈ 3.17 µM) | 0.5 (≈ 1.06 µM) | 50 (≈ 106 µM) | 1.5 (≈ 3.17 µM) | 0.5 (≈ 1.06 µM) | 6 (≈ 12.7 µM) | > 100 | > 100 | > 100 | > 100 | > 100 | > 100 | > 100 | > 100 | 1.2 (≈ 2.54 µM) | 1.2 (≈ 2.54 µM) | 1.2 (≈ 2.54 µM) | MIC (Dipl.pneum. L 54): 1 µg/mL (≈ 2.12 µM); MIC (Salm.dubl. P 43; [8]): > 100 µg/mL; MIC (Prot.rettg. A 821; [8]): 3 µg/mL (≈ 6.35 µM); MIC (Prot.mirab. H 3; [10]): > 100 µg/mL; MIC (Prot.mirab. L 93; [10]): 25 µg/mL (≈ 52.9 µM); MIC (Haem.infl. A 1030): 1.2 µg/mL (≈ 2.54 µM); MIC (Staph.aureus A 355 [7]): 1.5 µg/mL (≈ 3.17 µM)
CC1=C(C(=O)O)N2C(=O)[C@@H](NC(=O)Cc3nc(-c4c(Cl)cccc4Cl)no3)[C@H]2SC1 [Example 11E, 7-{[3-(2,6-dichlorophenyl)-1,2,4-oxadiazol-5-yl]-acetamido}desacetoxycephalosporanic acid] | 1 (≈ 2.13 µM) | 0.5 (≈ 1.07 µM) | 0.75 (≈ 1.6 µM) | 1 (≈ 2.13 µM) | 0.25 (≈ 0.533 µM) | 12.5 (≈ 26.6 µM) | 50 (≈ 107 µM) | 25 (≈ 53.3 µM) | 100 (≈ 213 µM) | > 100 | > 100 | > 100 | > 100 | > 100 | > 100 | > 100 | > 100 | 0.25 (≈ 0.533 µM) | 3.7 (≈ 7.88 µM) | 0.25 (≈ 0.533 µM) | MIC (Salm.dubl. P 43; [8]): > 100 µg/mL; MIC (Prot.rettg. A 821; [8]): > 100 µg/mL; MIC (Prot.mirab. H 3; [10]): > 100 µg/mL; MIC (Prot.mirab. L 93; [10]): > 100 µg/mL; MIC (Haem.infl. A 1030): 125 µg/mL (≈ 266 µM); MIC (Staph.aureus A 355 [7]): 0.75 µg/mL (≈ 1.6 µM)
